From patent US10760052B2, “Method of inhibiting tau phosphorylation” (priority 2012, dated 2020)
Like-named read-outs stand apart in the source and are kept apart here.

Molecular target: T1, mu opiate receptor (MOR) (Rattus norvegicus, UniProt P33535)
T1 construct: from tissue; host or cells: striatum (membrane preparation)
Type: biochemical

[1] = [35S]GTPγS binding to Gαo in striatal membranes, compound 0.1 μM
[2] = [35S]GTPγS binding to Gαo in striatal membranes, compound 1 μM
[3] = [35S]GTPγS binding to Gαo in striatal membranes, compound 1 μM plus 1 μM β-funaltrexamine (MOR antagonist)
[4] = 0.1 μM compound, striatal membranes, Series C-2
[5] = 1 μM compound + 1 μM β-FNA (selective MOR antagonist), Series C-2
[6] = 1 μM compound, striatal membranes, Series C-2

T1 sequence (P33535 whole entry): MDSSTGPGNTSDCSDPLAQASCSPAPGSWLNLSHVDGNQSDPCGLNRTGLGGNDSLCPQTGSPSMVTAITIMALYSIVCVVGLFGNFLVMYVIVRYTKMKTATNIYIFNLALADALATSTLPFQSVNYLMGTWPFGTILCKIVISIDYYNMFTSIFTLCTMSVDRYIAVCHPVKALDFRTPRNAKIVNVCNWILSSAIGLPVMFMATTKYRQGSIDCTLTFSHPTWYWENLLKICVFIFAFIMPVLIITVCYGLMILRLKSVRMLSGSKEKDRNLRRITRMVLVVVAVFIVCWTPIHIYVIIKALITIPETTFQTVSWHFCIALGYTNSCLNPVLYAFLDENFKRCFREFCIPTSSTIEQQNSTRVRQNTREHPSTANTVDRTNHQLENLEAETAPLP

COc1c2c(cc3c1OCO3)CCN(CC(O)COC1CC(C)CCC1C(C)C)C2 (stereo not drawn) [Compound A0061]
% DAMGO (0.1 μM): 70.7% | % DAMGO (1 μM): 85.5% | % DAMGO + BFNA: 26.8% | Concentration of FLNA-Binding Compound as Agonist 0.1 μM [1]: 110.3% | Concentration of FLNA-Binding Compound as Agonist 1 μM [2]: 197.1% | Concentration of FLNA-Binding Compound as Agonist 1 μM + BFNA [3]: 10.7%

COc1c2c(cc3c1C(CC(O)CCc1ccccc1)[N+](C)(C)CC3)OCO2 (stereo not drawn) [Compound B0052]
% DAMGO (0.1 μM): 58.1% | % DAMGO (1 μM): 69.3% | % DAMGO + BFNA: 246.4% | Concentration of FLNA-Binding Compound as Agonist 0.1 μM [1]: 98.2% | Concentration of FLNA-Binding Compound as Agonist 1 μM [2]: 151.7% | Concentration of FLNA-Binding Compound as Agonist 1 μM + BFNA [3]: 40.9%

CC1CCC(C(C)C)C(OCC(O)CN2CCN(C)CC2)C1 (stereo not drawn) [Compound A0009]
% DAMGO (0.1 μM): 39.8% | % DAMGO (1 μM): 48.7% | % DAMGO + BFNA: 142.9% | Concentration of FLNA-Binding Compound as Agonist 0.1 μM [1]: 70.2% | Concentration of FLNA-Binding Compound as Agonist 1 μM [2]: 126.4% | Concentration of FLNA-Binding Compound as Agonist 1 μM + BFNA [3]: 93.9%

COc1c2c(cc3c1C(CC(=O)Cc1ccccc1F)[N+](C)(C)CC3)OCO2 (stereo not drawn) [Compound B0055]
% DAMGO (0.1 μM): 91.8% | % DAMGO (1 μM): 133.1% | % DAMGO + BFNA: 446.8% | Concentration of FLNA-Binding Compound as Agonist 0.1 μM [1]: 162.1% | Concentration of FLNA-Binding Compound as Agonist 1 μM [2]: 338.5% | Concentration of FLNA-Binding Compound as Agonist 1 μM + BFNA [3]: 117.5%

COc1ccc(S(=O)(=O)N2CCC3(CC2)OCCN3S(=O)(=O)c2ccc(C(C)=O)cc2)cc1 [Compound C0048]
% DAMGO (0.1 μM): 144.2% | % DAMGO (1 μM): 105.3% | % DAMGO + BFNA: 204.3% | Concentration of FLNA-Binding Compound as Agonist 0.1 μM: 209.1% | Concentration of FLNA-Binding Compound as Agonist 1 μM: 245.3% | Concentration of FLNA-Binding Compound as Agonist 1 μM + BFNA: 89.9%

COc1ccccc1S(=O)(=O)N1CCC2(CC1)OCCN2S(=O)(=O)c1ccccc1OC [Compound C0003]
% DAMGO (0.1 μM): 91.9% | % DAMGO (1 μM): 83.3% | % DAMGO + BFNA: 163.9% | Concentration of FLNA-Binding Compound as Agonist 0.1 μM [1]: 162.3% | Concentration of FLNA-Binding Compound as Agonist 1 μM [2]: 215.9% | Concentration of FLNA-Binding Compound as Agonist 1 μM + BFNA [3]: 107.7%

COc1ccc(S(=O)(=O)N2CCOC23CCNCC3)cc1 [Compound C0027]
% DAMGO (0.1 μM): 121.3% | % DAMGO (1 μM): 115.0% | % DAMGO + BFNA: 164.5% | [35S]GTPγS binding, FLNA-Binding Compound as Agonist at 0.1 μM [4]: 233.2% | [35S]GTPγS binding, FLNA-Binding Compound as Agonist at 1 μM + BFNA [5]: 72.2% | [35S]GTPγS binding, FLNA-Binding Compound as Agonist at 1 μM [6]: 313.9%

CC1CCCC(OCC(O)CN2CC(C)OC(C)C2)C1 (stereo not drawn) [Compound A0021]
% DAMGO (0.1 μM): 79.8% | % DAMGO (1 μM): 112.4% | % DAMGO + BFNA: 34.9% | Concentration of FLNA-Binding Compound as Agonist 0.1 μM [1]: 133.3% | Concentration of FLNA-Binding Compound as Agonist 1 μM [2]: 275.3% | Concentration of FLNA-Binding Compound as Agonist 1 μM + BFNA [3]: 12.1%

COc1c2c(cc3c1C(CC(=O)CCc1ccccc1)N(C)CC3)OCO2 (stereo not drawn) [Compound B0050]
% DAMGO (0.1 μM): 58.1% | % DAMGO (1 μM): 96.4% | % DAMGO + BFNA: 294.0% | Concentration of FLNA-Binding Compound as Agonist 0.1 μM [1]: 98.2% | Concentration of FLNA-Binding Compound as Agonist 1 μM [2]: 211.0% | Concentration of FLNA-Binding Compound as Agonist 1 μM + BFNA [3]: 48.8%

O=S(=O)(c1ccc2ccccc2c1)N1CCC2(CC1)OCCN2S(=O)(=O)c1ccc2ccccc2c1 [Compound C0140M]
% DAMGO (0.1 μM): 85.8% | % DAMGO (1 μM): 106.5% | % DAMGO + BFNA: 211.2% | Concentration of FLNA-Binding Compound as Agonist 0.1 μM [1]: 126.1% | Concentration of FLNA-Binding Compound as Agonist 1 μM [2]: 215.4% | Concentration of FLNA-Binding Compound as Agonist 1 μM + BFNA [3]: 83.0%

COc1c2c(cc3c1C(CC(=O)Cc1ccc(Br)cc1)[N+](C)(C)CC3)OCO2 (stereo not drawn) [Compound B0011]
% DAMGO (0.1 μM): 95.7% | % DAMGO (1 μM): 78.7% | % DAMGO + BFNA: 120.0% | Concentration of FLNA-Binding Compound as Agonist 0.1 μM [1]: 158.6% | Concentration of FLNA-Binding Compound as Agonist 1 μM [2]: 212.6% | Concentration of FLNA-Binding Compound as Agonist 1 μM + BFNA [3]: 78.0%

CC(=O)c1ccc(S(=O)(=O)N2CC(=O)NC23CCNCC3)cc1 [Compound C0086M]
% DAMGO (0.1 μM): 117.5% | % DAMGO (1 μM): 104.9% | % DAMGO + BFNA: 692.3% | [35S]GTPγS binding, FLNA-Binding Compound as Agonist at 0.1 μM: 206.8% | [35S]GTPγS binding, FLNA-Binding Compound as Agonist at 1 μM: 265.3% | [35S]GTPγS binding, FLNA-Binding Compound as Agonist at 1 μM + BFNA: 152.3%

CC(C)c1ccc(S(=O)(=O)N2CCC3(CC2)OCCN3S(=O)(=O)c2ccc(C(C)C)cc2)cc1 [Compound C0007]
% DAMGO (0.1 μM): 46.0% | % DAMGO (1 μM): 70.5% | % DAMGO + BFNA: 17.0% | Concentration of FLNA-Binding Compound as Agonist 0.1 μM [1]: 79.1% | Concentration of FLNA-Binding Compound as Agonist 1 μM [2]: 195.0% | Concentration of FLNA-Binding Compound as Agonist 1 μM + BFNA [3]: 10.9%

CC1CCN(CC(O)COC2CC(C)CCC2C(C)C)CC1 (stereo not drawn) [Compound A0006]
% DAMGO (0.1 μM): 113.8% | % DAMGO (1 μM): 82.9% | % DAMGO + BFNA: 68.7% | Concentration of FLNA-Binding Compound as Agonist 0.1 μM [1]: 170.0% | Concentration of FLNA-Binding Compound as Agonist 1 μM [2]: 190.9% | Concentration of FLNA-Binding Compound as Agonist 1 μM + BFNA [3]: 18.2%

CCCCN1CCC2(CC1)OCCN2S(=O)(=O)c1ccc(C(C)=O)cc1 [Compound C0101M]
% DAMGO (0.1 μM): 82.5% | % DAMGO (1 μM): 123.4% | % DAMGO + BFNA: 368.0% | [35S]GTPγS binding, FLNA-Binding Compound as Agonist at 0.1 μM [4]: 138.2% | [35S]GTPγS binding, FLNA-Binding Compound as Agonist at 1 μM + BFNA [5]: 174.8% | [35S]GTPγS binding, FLNA-Binding Compound as Agonist at 1 μM [6]: 274.3%

O=S(=O)(c1ccc(Br)cc1F)N1CCC2(CC1)OCCN2S(=O)(=O)c1ccc(Br)cc1F [Compound C0078]
% DAMGO (0.1 μM): 82.4% | % DAMGO (1 μM): 106.4% | % DAMGO + BFNA: 359.4% | Concentration of FLNA-Binding Compound as Agonist 0.1 μM [1]: 138.1% | Concentration of FLNA-Binding Compound as Agonist 1 μM [2]: 236.6% | Concentration of FLNA-Binding Compound as Agonist 1 μM + BFNA [3]: 170.7%

CC1CN(CC(O)COc2ccc(Cl)cc2)CC(C)O1 (stereo not drawn) [Compound A0047]
% DAMGO (0.1 μM): 118.8% | % DAMGO (1 μM): 92.4% | % DAMGO + BFNA: 157.6% | Concentration of FLNA-Binding Compound as Agonist 0.1 μM [1]: 233.0% | Concentration of FLNA-Binding Compound as Agonist 1 μM [2]: 255.0% | Concentration of FLNA-Binding Compound as Agonist 1 μM + BFNA [3]: 116.5%

CC1CCC(C(C)C)C(OCC(O)CN2CCC(=O)C(C)C2)C1 (stereo not drawn) [Compound A0056]
% DAMGO (0.1 μM): 74.1% | % DAMGO (1 μM): 56.2% | % DAMGO + BFNA: 43.6% | Concentration of FLNA-Binding Compound as Agonist 0.1 μM: 115.6% | Concentration of FLNA-Binding Compound as Agonist 1 μM: 129.6% | Concentration of FLNA-Binding Compound as Agonist 1 μM + BFNA: 17.4%

O=S(=O)(c1ccc(-c2ccccc2)cc1)N1CCC2(CC1)OCCN2S(=O)(=O)c1ccc(-c2ccccc2)cc1 [Compound C0010]
% DAMGO (0.1 μM): 80.7% | % DAMGO (1 μM): 114.9% | % DAMGO + BFNA: 135.0% | Concentration of FLNA-Binding Compound as Agonist 0.1 μM [1]: 136.5% | Concentration of FLNA-Binding Compound as Agonist 1 μM [2]: 307.0% | Concentration of FLNA-Binding Compound as Agonist 1 μM + BFNA [3]: 89.1%

CC(=O)Nc1ccc(S(=O)(=O)N2CCC3(CC2)OCCN3S(=O)(=O)c2ccc(NC(C)=O)cc2)cc1 [Compound C0013]
% DAMGO (0.1 μM): 91.0% | % DAMGO (1 μM): 108.9% | % DAMGO + BFNA: 61.8% | Concentration of FLNA-Binding Compound as Agonist 0.1 μM [1]: 156.6% | Concentration of FLNA-Binding Compound as Agonist 1 μM [2]: 301.2% | Concentration of FLNA-Binding Compound as Agonist 1 μM + BFNA [3]: 39.6%

C[C@@H](NC(=O)[C@@H](N)Cc1ccc(O)cc1)C(=O)NCC(=O)N(C)[C@@H](Cc1ccccc1)C(=O)NCCO [DAMGO, reference compound]
Concentration of FLNA-Binding Compound as Agonist 0.1 μM: 168.5% | Concentration of FLNA-Binding Compound as Agonist 1 μM: 266.1% | Concentration of FLNA-Binding Compound as Agonist 1 μM + BFNA: 53.2% | [35S]GTPγS binding, FLNA-Binding Compound as Agonist at 0.1 μM: 168.5% | [35S]GTPγS binding, FLNA-Binding Compound as Agonist at 1 μM: 266.1% | [35S]GTPγS binding, FLNA-Binding Compound as Agonist at 1 μM + BFNA: 53.2%

CCOC(=O)CN1CCC2(CC1)OCCN2S(=O)(=O)c1ccc(C(C)=O)cc1 [Compound C0099M]
% DAMGO (0.1 μM): 93.8% | % DAMGO (1 μM): 88.0% | % DAMGO + BFNA: 241.5% | [35S]GTPγS binding, FLNA-Binding Compound as Agonist at 0.1 μM [4]: 157.2% | [35S]GTPγS binding, FLNA-Binding Compound as Agonist at 1 μM + BFNA [5]: 114.7% | [35S]GTPγS binding, FLNA-Binding Compound as Agonist at 1 μM [6]: 195.7%
